{"source": "paper PMC4633474", "about": "“Kinetic properties and stability of glucose dehydrogenase from Bacillus amyloliquefaciens SB5 and its potential for cofactor regeneration” (AMB Express, 2015)", "molecular_target": "T1, GluDH-BS (Bacillus subtilis, UniProt P12310)", "T1 construct": "gene gdh; full length, plasmid pHGBS, overexpressed in B. subtilis 168 (strain BS), crude cell-free extract", "T1 sequence (P12310 whole entry)": "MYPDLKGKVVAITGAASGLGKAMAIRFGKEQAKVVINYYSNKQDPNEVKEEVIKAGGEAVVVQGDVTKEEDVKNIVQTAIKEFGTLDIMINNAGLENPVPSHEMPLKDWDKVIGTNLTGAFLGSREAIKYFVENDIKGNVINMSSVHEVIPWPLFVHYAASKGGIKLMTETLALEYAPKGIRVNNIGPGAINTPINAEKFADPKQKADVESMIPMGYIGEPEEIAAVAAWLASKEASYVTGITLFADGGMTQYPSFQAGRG", "experiment": "NADPH formation at […] nm, crude extract", "assay_type": "biochemical", "settings": "glucose, CPB buffer, 37 °C; turnover only", "data": [{"compound": "NC(=O)c1ccc[n+]([C@@H]2O[C@H](COP(=O)(O)OP(=O)(O)OC[C@H]3O[C@@H](n4cnc5c(N)ncnc54)[C@H](OP(=O)(O)O)[C@@H]3O)[C@@H](O)[C@H]2O)c1", "note": "[NADP^+]", "values": [{"measurement": "NADPH formation at 340 nm, crude extract", "value": "crude GluDH-BS (closed circle) and GluDH-BA (open circle) when using NADP^+ as a cofactor"}]}]}
